Results as given in patent publication US20250074976A1, “PHARMACEUTICAL COMPOSITION FOR TREATING PERIPHERAL NERVE INJURY” (NATIONAL UNIVERSITY CORPORATION HOKKAIDO UNIVERSITY, priority 2021, published 2025).

Columns and labels:
Assay type in all cases: in vivo, Lewis rats
[1] = system: sciatic nerve crush injury; assay: Collagen sheet covering 15 mm to 25 mm distal to injury site, evaluation 12 hours after crush injury (NETs, macrophages); conditions: n=3; for NETs in the epineurium (CitH3 positive area) / macrophages accumulated in the nerve parenchyma: 20 mm distal
Source text: (§1) Anesthetized Lewis rats (males, 12-16 weeks old) or C57BL/6 mice (males, 8-10 weeks old) were placed in the prone position and a longitudinal skin incision was made from the left buttock to the distal left thigh to expose the entire sciatic nerve. Crush injuries were created with micro mosquito forceps (Fine Science Tools, No. 13010-12). An 8-0 Nylon thread was applied to the epineurium at the crush injury for marking, and the incision was closed.
(§2) After a predetermined time had elapsed from the creation of the crush injury, the right atrial appendage of the animals was incised under anesthesia to release the blood, and a PBS solution was poured into the left heart to remove the blood. After transcardial perfusion and fixation with 4% paraformaldehyde-added PBS, the sciatic nerve was collected.
(§3) Sciatic nerves collected from animals were fixed in 4% PFA at 4° C. overnight and then transferred to 30% Sucrose/PB solution and allowed to stand for 24 hours or longer. Longitudinal sciatic nerve sections of 10 μm thickness, or in the case of mice, transverse sections at predetermined locations, were prepared using a cryostat. The sections were blocked in TBS (pH 8.4) containing 5% Normal horse serum (Thermo Fisher Scientific, Waltham, MA) and 0.25% Triton X-100 (Sigma-Aldrich, St. Louis, MO) for 1 hour, and then immersed in TBS containing primary antibody at 4° C. overnight and in TBS containing secondary antibody at room temperature for 1 hour for staining. After washing with TBS, counterstaining was performed with DAPI. After staining, tissues were observed using a fluorescence microscope BZ-X710 (KEYENCE). Image analysis was performed using Image J (Schneider et al., 2012).
Crush injuries were created in the sciatic nerve of rats. Ten hours after injury creation, the sciatic nerves from 15 mm to 25 mm distal to the injury site were wrapped with the collagen-based artificial skin PELNAC (registered trademark) (Smith & Nephew; hereafter also referred to as sheets or collagen sheets) impregnated with either 50 μl of PBS containing 0.3 mg of the PAD4 inhibitor Cl-amidine (Cayman CHEMICAL #10599), 50 μl of PBS containing 200 U of DNase I (Nippon Gene #314-08071), or 50 μl of PBS (control). The sheets were suture-fixed with 8-0 nylon and placed for 2 hours (n=3 in each group). Twelve hours after injury creation, the sciatic nerves were collected, their longitudinal sections at 20 mm distal to the injury site were prepared and immunohistochemical staining for CitH3, Ly-6G, and CD68 was performed. The epineural area was observed and the percentage of area stained for CitH3 in the total area of the field of view was calculated. The number of macrophages per unit area of the nerve parenchyma was quantified.
Crush injuries were created in the sciatic nerve of rats. Ten hours after injury creation, the sciatic nerves from 15 mm to 25 mm distal to the injury site were wrapped with collagen sheets impregnated with either 50 μl of 1% DMSO containing 500 μg of the MIF inhibitor iso-1 (Abcam, Cat ab142140), or 50 μl of 1% DMSO. The sheets were suture-fixed with 8-0 nylon and placed for 2 hours (n=3 in each group). Twelve hours after injury creation, the sciatic nerves were collected, their longitudinal sections were prepared, and immunohistochemical staining for CitH3, Ly-6G, and CD68 was performed. The epineural area was observed and the percentage of area stained for CitH3 in the total area of the field of view was calculated. The number of macrophages per unit area of the nerve parenchyma was quantified.
Crush injuries were created in the sciatic nerve of rats. Ten hours after injury creation, the sciatic nerves from 15 mm to 25 mm distal to the injury site were wrapped with collagen sheets impregnated with either 50 μl of PBS containing 500 μg of the CXCR4 inhibitor AMD3100 (Abcam #10599), or 50 μl of PBS. The sheets were suture-fixed with 8-0 nylon and placed for 2 hours (n=3 in each group).

[2] = system: sciatic nerve crush injury; assay: Collagen sheet covering 5 mm to 25 mm distal to injury site, evaluation 7 days after crush injury (macrophages, axonal regeneration); conditions: placed 2 hours, 7 days after injury, vs control sheet
Source text: as §1, §2, §3
(§4) In β3 tubulin-immunostained images of longitudinal sciatic nerve sections, vertical lines were set at 5 mm intervals in the direction distal to the injury site, and the number of axons crossing each line was divided by the length of the line to calculate axon density. The axonal regeneration percentage was calculated by dividing the axon density at each location by the axon density at uninjured site 1.5 mm proximal to the injury site.
(§5) Crush injuries were created in the sciatic nerve of rats.
Crush injuries were created in the sciatic nerve of rats. […] The sheets were removed 12 hours after injury creation and the incisions were closed after washing.
as §5

[3] = system: sciatic nerve crush injury; assay: Collagen sheet covering 5 mm to 15 mm distal to injury site, evaluation 7 days after crush injury (axonal regeneration); conditions: sheet with 500 μg inhibitor in 50 μl 1% DMSO, placed 2 hours; 7 days after injury; vs control sheet; n=1; FIG. 37
Source text: Anesthetized Lewis rats (males, 12-16 weeks old) or C57BL/6 mice (males, 8-10 weeks old) were placed in the prone position and a longitudinal skin incision was made from the left buttock to the distal left thigh to expose the entire sciatic nerve. […] An 8-0 Nylon thread was applied to the epineurium at the crush injury for marking, and the incision was closed.
as §2
as §3, with “(KEYENCE).” for “(KEYENCE). Image analysis was performed using Image J (Schneider et al., 2012).”
as §4
Crush injuries were created in the sciatic nerve of rats. […] […] Seven days after injury creation, the sciatic nerves were collected, and immunohistochemical staining of their longitudinal sections was performed to calculate the axonal regeneration percentage.

c1cc(CN2CCCNCCNCCCNCC2)ccc1CN1CCCNCCNCCCNCC1 [AMD3100, 1,4-Bis[(1,4,8,11-tetraazacyclotetradecan-1-yl)methyl]benzene]
NETs in the epineurium (CitH3 positive area) ([1]; sheet with 500 μg AMD3100 in 50 μl PBS, placed 2 hours, 12 hours after injury, FIG. 39): only a small amount of NETs were detected
macrophages accumulated in the nerve parenchyma ([1]; sheet with 500 μg AMD3100 in 50 μl PBS, placed 2 hours, 12 hours after injury, vs control sheet, FIG. 40): more macrophages accumulated in the nerve parenchyma
macrophages accumulated in the nerve parenchyma ([2]; sheet with 1 mg AMD3100 in 100 μl PBS, over almost the entire evaluated regions, n=1, FIG. 42): more macrophages accumulated in the nerve parenchyma
axonal regeneration percentage ([2]; sheet with 1 mg AMD3100 in 100 μl PBS, n=1, FIG. 41): higher axonal regeneration percentage

O=C(O)CC1CC(c2ccc(O)cc2)=NO1 (racemic) [iso-1, (S,R)-3-(4-Hydroxyphenyl)-4,5-dihydro-5-isoxazole acetic acid]
NETs in the epineurium at 20 mm distal to the injury site (CitH3 positive area) ([1]; sheet with 500 μg iso-1 in 50 μl 1% DMSO, placed 2 hours, 12 hours after injury, FIG. 32): only a small amount of NETs were detected
macrophage accumulation at 5 mm distal to the injury site (no sheet treatment there) ([1]; sheet with 500 μg iso-1 in 50 μl 1% DMSO, placed 2 hours, 12 hours after injury, vs control sheet, FIG. 30): no difference in macrophage accumulation
macrophages accumulated in the nerve parenchyma at 20 mm distal to the injury site (sheet-treated) ([1]; sheet with 500 μg iso-1 in 50 μl 1% DMSO, placed 2 hours, 12 hours after injury, vs control sheet, FIG. 31): more macrophages accumulated in the nerve parenchyma
axonal regeneration percentage ([2]; sheet with 1000 μg iso-1 in 100 μl 1% DMSO, over almost the entire evaluated regions, n=3, FIG. 35): higher axonal regeneration percentage
accumulation of macrophages in the nerve parenchyma (CD68; M2 macrophages CD163) ([2]; sheet with 1000 μg iso-1 in 100 μl 1% DMSO, over the entire evaluated regions, n=3, FIG. 33, 34): greater accumulation of macrophages in the nerve parenchyma
axonal regeneration percentage [3]: higher axonal regeneration percentage
longest axon length [3]: greater longest axon length

O=C(CC1CC(c2ccc(F)cc2F)=NO1)N1CCOCC1 (stereo not drawn) [CPSI-1306]
axonal regeneration percentage [3]: higher axonal regeneration percentage
longest axon length [3]: greater longest axon length

N=C(CCl)NCCC[C@H](NC(=O)c1ccccc1)C(N)=O.O=C(O)C(F)(F)F [Cl-amidine, N^2-Benzoyl-N^5-(1-imino-2-chloroethyl)-L-ornithinamide trifluoroacetic acid]
NETs in the epineurium (CitH3 positive area) ([1]; sheet with 0.3 mg Cl-amidine or 200 U DNase I in 50 μl PBS, placed 2 hours from 10 hours after injury, 12 hours, vs control sheet (large amount), FIG. 25): only a small amount of NETs were detected
macrophages accumulated in the nerve parenchyma ([1]; sheet with 0.3 mg Cl-amidine or 200 U DNase I, placed 2 hours, 12 hours, CD68, vs control sheet, FIG. 26): more macrophages accumulated in the nerve parenchyma
